The values that follow come from patent US7786165B2, “Aminophenylpropanoic acid derivative” (Takeda Pharmaceutical Company Limited, priority 2004, dated 2010).

Structures can show the parent of a compound that is named as a salt. Bounds are passed on as bounds.

This test concerns the target T1, human GPR40 (Homo sapiens, UniProt O14842).
T1 construct: expressed in transfected cells; host or cells: CHO cell line stably expressing human GPR40
In words: Determination of EC50 for human GPR40: intracellular calcium change by FLIPR in CHO cells stably expressing human GPR40. The class given is cell-based. The following applies: CHO cell line stably expressing human GPR40, changes in intracellular calcium concentration, Fluo3-AM, read-out: EC50 (Receptor Function Modulating Action On GPR40). The method, then: Determination of EC50 of the Compound of the Present Invention for Human GPR40
For determination of EC50, CHO cell line that stably expressed human GPR40 was used. Unless otherwise indicated, the CHO cell line was cultured using α-MEM medium (Invitrogen) containing 10% fetal calf serum (Invitrogen).
The cells cultured to nearly confluent were rinsed with PBS (Invitrogen) on the previous day of the assay, peeled off with 0.05% Trypsin-EDTA solution (Invitrogen) and recovered by centrifugation. The number of the obtained cells was counted, and the cells were diluted such that 3×10^5 cells were contained per 1 mL of the medium, dispensed to a black welled 96-well plate (coster) by 100 μL per well and cultured overnight in a CO2 incubator. Various test compounds were added to the CHO cells thus prepared, and the changes in the intracellular calcium concentration were measured using FLIPR (Molecular Device). The below-mentioned pre-treatment was applied to measure changes in the intracellular calcium concentration by FLIPR.
First, an assay buffer for adding a fluorescence dye Fluo3-AM (DOJIN) to the cells, or for washing the cells immediately before FLIPR assay was prepared. To a solution of HBSS (Invitrogen, 1000 mL) to which 1M HEPES (pH 7.4, DOJIN, 20 mL) added (hereinafter HBSS/HEPES solution) was added a solution (10 mL) obtained by dissolving probenecid (Sigma, 710 mg) in 1N NaOH (5 mL), and adding and mixing an HBSS/HEPES solution (5 mL), and the resulting solution was used as an assay buffer. Next, Fluo3-AM (50 μg) was dissolved in dimethylsulfoxide (Wako, 21 μL), and an equivalent amount of 20% pluronic acid (Molecular Probes) was added and mixed. The solution was added to the assay buffer (10.6 mL) supplemented with fetal vovine serum (105 μL) to give a fluorescence dye solution. The medium of the CHO cells inoculated to the black welled 96-well plate on the previous day of assay was removed, the fluorescence dye solution was immediately dispensed by 100 μL per well and the cells were cultured in a CO2 incubator for 1 hr to allow intake of the fluorescence dye by the cells. The cells after the culture were washed with the above-mentioned assay buffer and set on FLIPR. The test compound was diluted with dimethylsulfoxide in advance, dispensed to polypropylene 96-well plate (sample plate) by […], and cryopreserved at −20° C. To the thawed sample plate was added an assay buffer containing 0.015% CHAPS (DOJIN) by 198 μL, and simultaneously set on FLIPR together with the cell plate. After the aforementioned pre-treatment, changes in the intracellular calcium concentration upon addition of various test compounds as measured by FLIPR. Based on the results, a dose-response curve of each test compound was formed and EC50 was calculated.
On the technique in general: Calcium flux is commonly read through the fluorescence of an indicator in the cells.

T1 sequence (O14842 whole entry): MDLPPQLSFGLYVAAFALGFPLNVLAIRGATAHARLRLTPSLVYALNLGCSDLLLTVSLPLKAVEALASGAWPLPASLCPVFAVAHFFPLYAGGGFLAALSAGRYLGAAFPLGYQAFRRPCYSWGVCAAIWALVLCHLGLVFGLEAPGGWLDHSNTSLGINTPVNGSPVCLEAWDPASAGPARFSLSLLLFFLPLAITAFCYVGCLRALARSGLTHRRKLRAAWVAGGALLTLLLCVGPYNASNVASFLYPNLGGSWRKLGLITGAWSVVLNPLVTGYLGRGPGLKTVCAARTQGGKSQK

As a reminder, the EC50 is the concentration needed to bring the measured effect to its halfway point. With `Cc1cccc(C)c1-c1cccc(CNc2ccc(CCC(=O)O)cc2)c1` [Example 2, 3-(4-{[(2′,6′-dimethylbiphenyl-3-yl)methyl]amino}phenyl)propanoic acid], the EC50 is less than 10 nM.
For `O=C(O)CCc1ccc(NCc2ccc(Cn3c(-c4ccccc4)cc4ccccc43)cc2)cc1` [Example 12, 3-[4-({4-[(2-phenyl-1H-indol-1-yl)methyl]benzyl}amino)phenyl]propanoic acid hydrochloride] the value was less than 100 nM; for `O=C(O)CCc1ccc(NCc2ccc(CN(CCc3ccccc3)c3nc(-c4ccccc4)cs3)cc2)cc1` [Example 18, 3-{4-[(4-{[(2-phenylethyl)(4-phenyl-1,3-thiazol-2-yl)amino]methyl}benzyl)amino]phenyl}propanoic acid], less than 100 nM; for `CCCN(Cc1ccc(CNc2ccc(CCC(=O)O)cc2)cc1)c1nc(-c2ccccc2)cs1` [Example 21, 3-{4-[(4-{[(4-phenyl-1,3-thiazol-2-yl)(propyl)amino]methyl}benzyl)amino]phenyl}propanoic acid], less than 100 nM.
As to `Cc1ccc2ccccc2c1-c1cccc(CNc2ccc(CCC(=O)O)cc2)c1` [Example 26, 3-(4-{[3-(2-methyl-1-naphthyl)benzyl]amino}phenyl)propanoic acid hydrochloride], the EC50 was less than 100 nM.
In the case of `Cc1cc(OCc2ccccc2)cc(C)c1-c1cccc(CNc2ccc(CCC(=O)O)cc2)c1` [Example 30, 3-[4-({[4′-(benzyloxy)-2′,6′-dimethylbiphenyl-3-yl]methyl}amino)phenyl]propanoic acid hydrochloride] it was less than 100 nM.
Consider `Cc1cc(OCC2CC2)cc(C)c1-c1cccc(CNc2ccc(CCC(=O)O)cc2)c1` [Example 33, 3-[4-({[4′-(cyclopropylmethoxy)-2′,6′-dimethylbiphenyl-3-yl]methyl}amino)phenyl]propanoic acid hydrochloride], for which the EC50 was less than 100 nM.
For `CCOCCOc1cc(C)c(-c2cccc(CNc3ccc(CCC(=O)O)cc3)c2)c(C)c1` [Example 37, 3-[4-({[4′-(2-ethoxyethoxy)-2′,6′-dimethylbiphenyl-3-yl]methyl}amino)phenyl]propanoic acid hydrochloride] the value was less than 100 nM; for `CCOCCOc1cc(C)c(-c2cccc(CNc3ccc(CCC(=O)O)c(F)c3)c2)c(C)c1` [Example 40, 3-[4-({[4′-(2-ethoxyethoxy)-2′,6′-dimethylbiphenyl-3-yl]methyl}amino)-2-fluorophenyl]propanoic acid hydrochloride], less than 100 nM; for `O=C(O)CCc1ccc(NCc2ccc(Cn3nc(-c4ccccc4)cc3-c3ccccc3)cc2)cc1` [Example 44, 3-[4-({4-[(3,5-diphenyl-1H-pyrazol-1-yl)methyl]benzyl}amino)phenyl]propanoic acid], less than 100 nM.
In the case of `Cn1ncc(COc2ccc(CNc3ccc(CCC(=O)O)cc3)cc2)c1-c1ccc(F)cc1` [Example 47, 3-{4-[(4-{[5-(4-fluorophenyl)-1-methyl-1H-pyrazol-4-yl]methoxy}benzyl)amino]phenyl}propanoic acid] it was less than 1000 nM; in that of `CCOCCOc1cc(C)c(-c2cccc(CNc3ccc(OCC(=O)O)cc3)c2)c(C)c1` [Example 67, [4-({[4′-(2-ethoxyethoxy)-2′,6′-dimethylbiphenyl-3-yl]methyl}amino)phenoxy]acetic acid], less than 100 nM.
For `CCOCCOc1ccc(-c2cc(CNc3ccc(CCC(=O)O)cc3)ccc2OCc2ccccc2)cc1` [Example 70, 3-[4-({[6-(benzyloxy)-4′-(2-ethoxyethoxy)biphenyl-3-yl]methyl}amino)phenyl]propanoic acid], the EC50 was less than 100 nM.
In the case of `CCOCCOc1cc(C)c(-c2cccc(CNc3ccc4c(c3)OCC4CC(=O)O)c2)c(C)c1` (stereo not drawn) [Example 86, [6-({[4′-(2-ethoxyethoxy)-2′,6′-dimethylbiphenyl-3-yl]methyl}amino)-2,3-dihydro-1-benzofuran-3-yl]acetic acid hydrochloride] it was less than 100 nM.
As to `CCN(CC)C(=O)COc1cc(C)c(-c2cccc(CNc3ccc(CCC(=O)O)c(F)c3)c2)c(C)c1` [Example 98, 3-{4-[({4′-[2-(diethylamino)-2-oxoethoxy]-2′,6′-dimethylbiphenyl-3-yl}methyl)amino]-2-fluorophenyl}propanoic acid], the EC50 is less than 100 nM.
In the case of `Cc1cc(OCC(=O)O)cc(C)c1-c1cccc(CNc2ccc(CCC(=O)O)c(F)c2)c1` [Example 100, 3-[4-({[4′-(carboxymethoxy)-2′,6′-dimethylbiphenyl-3-yl]methyl}amino)-2-fluorophenyl]propanoic acid], the EC50 is less than 1000 nM.
For `Cc1cccc(C)c1-c1cc(CNc2ccc(CCC(=O)O)c(F)c2)cc(OCc2ccccc2)c1` [Example 105, 3-[4-({[5-(benzyloxy)-2′,6′-dimethylbiphenyl-3-yl]methyl}amino)-2-fluorophenyl]propanoic acid methanesulfonate] the value was less than 100 nM.
Turning to `CC(C)(C)c1cc(-c2ccccc2)n(Cc2ccc(CNc3ccc(CCC(=O)O)c(F)c3)cc2)n1` [Example 107, 3-[4-({4-[(3-tert-butyl-5-phenyl-1H-pyrazol-1-yl)methyl]benzyl}amino)-2-fluorophenyl]propanoic acid], the EC50 was less than 100 nM.
For `CC(C)(C)c1cc(CCc2ccccc2)n(Cc2ccc(CNc3ccc(CCC(=O)O)c(F)c3)cc2)n1` [Example 113, 3-{4-[(4-{[3-tert-butyl-5-(2-phenylethyl)-1H-pyrazol-1-yl]methyl}benzyl)amino]-2-fluorophenyl}propanoic acid methanesulfonate] the value was less than 100 nM.
As to `CCOCCOc1cc(C)c(-c2cccc(CNc3ccc(CC(F)(F)C(=O)O)cc3)c2)c(C)c1` [Example 117, 3-[4-({[4′-(2-ethoxyethoxy)-2′,6′-dimethylbiphenyl-3-yl]methyl}amino)phenyl]-2,2-difluoropropanoic acid], the 50% effective concentration (EC50) is less than 100 nM.
On to `CCOCCOc1cc(C)c(-c2cccc(CNc3ccc(CCC(=O)O)cn3)c2)c(C)c1` [Example 120, 3-[6-({[4′-(2-ethoxyethoxy)-2′,6′-dimethylbiphenyl-3-yl]methyl}amino)pyridin-3-yl]propanoic acid methanesulfonate], for which the EC50 was less than 100 nM.
In the case of `Cc1cc(OS(C)(=O)=O)cc(C)c1-c1cccc(CNc2ccc(CCC(=O)O)c(F)c2)c1` [Example 123, 3-{4-[({2′,6′-dimethyl-4′-[(methylsulfonyl)oxy]biphenyl-3-yl}methyl)amino]-2-fluorophenyl}propanoic acid] it was less than 100 nM.
`CCOCCOc1ccc(-c2cc(CNc3ccc(CCC(=O)O)cc3)ccc2OC(C)C)cc1` [Example 127, 3-[4-({[4′-(2-ethoxyethoxy)-6-isopropoxybiphenyl-3-yl]methyl}amino)phenyl]propanoic acid]: the EC50 is less than 100 nM.
In the case of `Cc1ccc(COc2ccc(CNc3ccc(CCC(=O)O)c(F)c3)cc2CC(C)C)cc1` [Example 131, 3-[2-fluoro-4-({3-isobutyl-4-[(4-methylbenzyl)oxy]benzyl}amino)phenyl]propanoic acid] it was less than 100 nM; in that of `CCOCCOc1ccc(-c2cc(CNc3ccc(CCC(=O)O)c(F)c3)cc3c2OC(C)(C)C3)cc1` [Example 136, 3-{4-[({7-[4-(2-ethoxyethoxy)phenyl]-2,2-dimethyl-2,3-dihydro-1-benzofuran-5-yl}methyl)amino]-2-fluorophenyl}propanoic acid methanesulfonate], less than 100 nM.
In the case of `CC(C)COc1ccc(CNc2ccc(CCC(=O)O)cc2)cc1CN1c2ccccc2C=CC1(C)C` [Example 138, 3-[4-({3-[(2,2-dimethylquinolin-1(2H)-yl)methyl]-4-isobutoxybenzyl}amino)phenyl]propanoic acid], the EC50 is less than 1000 nM.
Take `CCS(=O)(=O)CCOc1cc(C)c(-c2cccc(CNc3ccc(CCC(=O)O)c(F)c3)c2)c(C)c1` [Example 146, 3-{4-[({4′-[2-(ethylsulfonyl)ethoxy]-2′,6′-dimethylbiphenyl-3-yl}methyl)amino]-2-fluorophenyl}propanoic acid methanesulfonate]: the EC50 was less than 100 nM.
